Like-named read-outs stand apart in the source and are kept apart here.

In general, IC50 refers to the midpoint of a concentration-inhibition curve. A higher IC50 goes with weaker potency. As usually defined, the DC50 is the concentration giving 50% degradation.

Assay [1] concerns LNCaP cells. The assay is described as follows: Inhibition of LNCaP proliferation (CellTiter-Glo). The format is cell-based. The settings on record: Homo sapiens, 144 h, 0.1 nM R1881, six days; for Emax: read-out: Max (maximum proliferation inhibition rate). As for the experimental part: The plate was incubated in a 37° C., 5% CO2 cell incubator for three days. […] A blank control cell well containing 0.5% DMSO and a cell-free vehicle control well were set up. The plate was incubated in a 37° C., 5% CO2 cell incubator for six days.

In assay [2] the target is T1, androgen receptor (AR) (Homo sapiens, UniProt P10275, T878A).
T1 construct: host or cells: LNCaP human prostate cancer cells
T1 sequence (P10275 1-920 T878A): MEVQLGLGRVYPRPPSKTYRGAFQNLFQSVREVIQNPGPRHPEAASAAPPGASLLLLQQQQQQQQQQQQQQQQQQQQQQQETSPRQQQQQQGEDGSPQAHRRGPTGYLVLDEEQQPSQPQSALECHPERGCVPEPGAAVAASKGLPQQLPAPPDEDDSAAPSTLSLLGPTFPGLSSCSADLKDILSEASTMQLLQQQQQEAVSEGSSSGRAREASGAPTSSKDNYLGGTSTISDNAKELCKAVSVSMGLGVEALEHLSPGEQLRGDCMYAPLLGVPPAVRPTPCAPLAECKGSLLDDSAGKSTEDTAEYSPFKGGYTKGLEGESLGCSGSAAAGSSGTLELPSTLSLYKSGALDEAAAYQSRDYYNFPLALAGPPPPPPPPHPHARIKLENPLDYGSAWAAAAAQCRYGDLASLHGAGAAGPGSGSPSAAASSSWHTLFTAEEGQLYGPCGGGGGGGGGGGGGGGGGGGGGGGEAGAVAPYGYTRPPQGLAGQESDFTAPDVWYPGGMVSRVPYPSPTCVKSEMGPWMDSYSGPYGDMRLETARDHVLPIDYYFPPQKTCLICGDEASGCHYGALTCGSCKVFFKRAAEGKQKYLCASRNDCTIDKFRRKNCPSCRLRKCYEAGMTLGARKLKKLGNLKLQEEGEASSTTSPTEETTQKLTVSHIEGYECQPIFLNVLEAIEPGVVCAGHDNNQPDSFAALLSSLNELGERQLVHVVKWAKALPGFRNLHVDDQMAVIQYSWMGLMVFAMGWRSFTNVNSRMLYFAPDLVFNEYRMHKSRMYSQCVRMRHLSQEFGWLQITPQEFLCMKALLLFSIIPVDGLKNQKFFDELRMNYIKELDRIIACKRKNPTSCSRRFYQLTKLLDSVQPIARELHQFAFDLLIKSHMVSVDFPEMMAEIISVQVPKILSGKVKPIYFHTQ
The assay is described as follows: Degradation activity on androgen receptor in LNCaP cells (AR ELISA). The format is cell-based. The following applies: for Dmax: read-out: Max (maximum AR degradation rate). As for the experimental part: The plate was incubated in a 37° C., 5% CO2 cell incubator for three days. […] A blank control cell well containing 0.5% DMSO was set up. The plate was incubated in a 37° C., 5% CO2 cell incubator for 24 hours. […] The lysate was well mixed by pipetting up and down and then centrifuged at 4000 rpm at 4° C. for 10 minutes. […] The plate was sealed and incubated in a 37° C. incubator for 1 hour. […] The plate was sealed and then incubated in a 37° C. incubator for 30 minutes.

Where [3] appears, read: 0.1 nM R1881, 24 hours, read-out: LNCaP DC50.
The mark [4] stands for this setting: read-out: LNCaP DC50, 0.1 nM R1881, 24 hours.

On to `C[C@H]1CC2(CCN(c3ccc(C(=O)N4CCC(N5CC(N6CCN(c7ccc(N8CCC(=O)NC8=O)cc7)CC6)C5)CC4)cc3)CC2)CN1c1ccc(C#N)c(Cl)c1` [Example 7, (S)-2-Chloro-4-(8-(4-(4-(3-(4-(4-(2,4-dioxotetrahydropyrimidin-1(2H)-yl)phenyl)piperazin-1-yl)azetidin-1-yl)piperidine-1-carbonyl)phenyl)-3-methyl-2,8-diazaspiro[4.5]decan-2-yl)benzonitrile], for which, in assay [1], half-maximal inhibition (IC50) required 4.6 nM and the Emax worked out at 53%. Also, in assay [2] (setting [3]), the DC50 was found to be 1 nM. In addition, the Dmax in assay [2] (0.1 nM R1881, 24 hours) is 93%.

For `C[C@H]1CC2(CCN(c3ccc(C(=O)N4CCC(CN5CCC(c6ccc(NC7CCC(=O)NC7=O)cc6F)CC5)CC4)cc3)CC2)CN1c1ccc(C#N)c(Cl)c1` (stereo partly drawn) [Example 27, 2-Chloro-4-((3S)-8-(4-(4-((4-(4-((2,6-dioxopiperidin-3-yl)amino)-2-fluorophenyl)piperidin-1-yl)methyl)piperidine-1-carbonyl)phenyl)-3-methyl-2,8-diazaspiro[4.5]decan-2-yl)benzonitrile], in assay [1], the IC50 is 7.9 nM and the Emax was 64%. The DC50 in assay [2] (setting [3]) came out at 7.7 nM. Also, the Dmax in assay [2] (0.1 nM R1881, 24 hours) turned out to be 96%.

As for `C[C@H]1CC2(CCN(c3ccc(C(=O)N4CCC5(CC4)CC(N4CCN(c6ccc(N7CCC(=O)NC7=O)cc6)CC4)C5)cc3F)CC2)CN1c1ccc(C#N)c(Cl)c1` [Example 30, (S)-2-Chloro-4-(8-(4-(2-(4-(4-(2,4-dioxotetrahydropyrimidin-1(2H)-yl)phenyl)piperazin-1-yl)-7-azaspiro[3.5]nonane-7-carbonyl)-2-fluorophenyl)-3-methyl-2,8-diazaspiro[4.5]decan-2-yl)benzonitrile], in assay [1], the IC50 stood at 7.2 nM and the Emax was 52%. For the same compound, in assay [2] (setting [3]), the DC50 stood at 4.2 nM. In addition, in assay [2] (0.1 nM R1881, 24 hours), the Dmax turned out to be 96%.

On to `C[C@H]1CC2(CCN(c3ccc(C(=O)N4CCC5(CC4)CC(N4CCN(c6ccc(N7CCC(=O)NC7=O)cc6)CC4)C5)nc3)CC2)CN1c1ccc(C#N)c(Cl)c1` [Example 32, (S)-2-Chloro-4-(8-(6-(2-(4-(4-(2,4-dioxotetrahydropyrimidin-1(2H)-yl)phenyl)piperazin-1-yl)-7-azaspiro[3.5]nonane-7-carbonyl)pyridin-3-yl)-3-methyl-2,8-diazaspiro[4.5]decan-2-yl)benzonitrile], for which, in assay [1], the midpoint of inhibition, the IC50, lay at 3.1 nM and the Emax was 63%. Moreover, in assay [2] (setting [3]), the 50% degradation concentration (DC50) worked out at 1 nM. In assay [2] (0.1 nM R1881, 24 hours), the Dmax is 95%.

With `C[C@H]1CC2(CCN(c3ccc(C(=O)N4CC(CN5CCC(c6cccc(NC7CCC(=O)NC7=O)c6)CC5)C4)nn3)CC2)CN1c1ccc(C#N)c(Cl)c1` (stereo partly drawn) [Example 21, 2-Chloro-4-((3S)-8-(6-(3-((4-(3-((2,6-dioxopiperidin-3-yl)amino)phenyl)piperidin-1-yl)methyl)azetidine-1-carbonyl)pyridazin-3-yl)-3-methyl-2,8-diazaspiro[4.5]decan-2-yl)benzonitrile], in assay [1], the IC50 is 16 nM and the Emax was 60%. Also, the DC50 in assay [2] (setting [3]) came out at 0.5 nM. The Dmax in assay [2] (0.1 nM R1881, 24 hours) amounted to 94%.

Regarding `C[C@H]1CC2(CCN(c3ccc(C(=O)N4CC(CN5CCN(c6cccc(NC7CCC(=O)NC7=O)c6)CC5)C4)cc3)CC2)CN1c1ccc(C#N)c(Cl)c1` (stereo partly drawn) [Example 14, 2-Chloro-4-((3S)-8-(4-(3-((4-(3-((2,6-dioxopiperidin-3-yl)amino)phenyl)piperazin-1-yl)methyl)azetidine-1-carbonyl)phenyl)-3-methyl-2,8-diazaspiro[4.5]decan-2-yl)benzonitrile], in assay [1], the IC50 turned out to be 57 nM and the Emax is 69%. Moreover, the DC50 in assay [2] (setting [3]) was 1.9 nM. The Dmax in assay [2] (0.1 nM R1881, 24 hours) came to 96%.

As for `C[C@H]1CC2(CCN(c3ccc(C(=O)N4CCC(N5CCN(c6ccc(C(=O)NC7CCC(=O)NC7=O)c(F)c6)CC5)CC4)cc3)CC2)CN1c1ccc(C#N)c(Cl)c1` (stereo partly drawn) [Example 1, 4-(4-(1-(4-((S)-2-(3-Chloro-4-cyanophenyl)-3-methyl-2,8-diazaspiro[4.5]decan-8-yl)benzoyl)piperidin-4-yl)piperazin-1-yl)-N-(2,6-dioxopiperidin-3-yl)-2-fluorobenzamide], in assay [1], the IC50 is 183 nM and the Emax was 63%. Also, in assay [2] (0.1 nM R1881, 24 hours), the Dmax worked out at 89%. Moreover, in assay [2] (setting [4]), the DC50 turned out to be 10.6 nM.

On to `C[C@H]1CC2(CCN(c3ccc(C(=O)N4CCC(CN5CCN(c6cc(NC7CCC(=O)NC7=O)ccn6)CC5)CC4)cc3)CC2)CN1c1ccc(C#N)c(Cl)c1` (stereo partly drawn) [Example 24, 2-Chloro-4-((3S)-8-(4-(4-((4-(4-((2,6-dioxopiperidin-3-yl)amino)pyridin-2-yl)piperazin-1-yl)methyl)piperidine-1-carbonyl)phenyl)-3-methyl-2,8-diazaspiro[4.5]decan-2-yl)benzonitrile], for which, in assay [1], the IC50 came to 659 nM and the Emax turned out to be 54%. The DC50 in assay [2] (setting [3]) is 9.1 nM. Further, the Dmax in assay [2] (0.1 nM R1881, 24 hours) is 94%.

On to `Cc1c(N2CCC3(CCN(c4ccc(C(=O)N5CCC(CN6CCN(c7cccc(NC8CCC(=O)NC8=O)c7)CC6)CC5)cc4)CC3)C2)ccc(C#N)c1Cl` (racemic) [Example 38, (±)-2-Chloro-4-(8-(4-(4-((4-(3-((2,6-dioxopiperidin-3-yl)amino)phenyl)piperazin-1-yl)methyl)piperidine-1-carbonyl)phenyl)-2,8-diazaspiro[4.5]decan-2-yl)-3-methylbenzonitrile], for which, in assay [1], half-maximal inhibition (IC50) required 49 nM and the Emax came out at 60%. In addition, the DC50 in assay [2] (setting [3]) was 11.7 nM. Further, in assay [2] (0.1 nM R1881, 24 hours), the Dmax amounted to 96%.

On to `C[C@H]1CC2(CCN(c3ccc(C(=O)N4CCC(CN5CCN(c6ccc(C(=O)NC7CCC(=O)NC7=O)c(F)c6)CC5)CC4)cc3)CC2)CN1c1ccc(C#N)c(Cl)c1` (stereo partly drawn) [Example 3, 4-(4-((1-(4-((S)-2-(3-Chloro-4-cyanophenyl)-3-methyl-2,8-diazaspiro[4.5]decan-8-yl)benzoyl)piperidin-4-yl)methyl)piperazin-1-yl)-N-(2,6-dioxopiperidin-3-yl)-2-fluorobenzamide], for which, in assay [1], the IC50 worked out at 286 nM and the Emax is 60%. Besides, in assay [2] (setting [3]), the DC50 turned out to be 22.1 nM. For the same compound, in assay [2] (0.1 nM R1881, 24 hours), the Dmax was found to be 89%.

As for `C[C@H]1CC2(CCN(c3ccc(C(=O)N4CCC(CN5CCN(c6cccc(NC7CCC(=O)NC7=O)c6)CC5)CC4)cc3)CC2)CN1c1ccc(C#N)c(C(F)(F)F)c1` (stereo partly drawn) [Example 41, 4-((3S)-8-(4-(4-((4-(3-((2,6-Dioxopiperidin-3-yl)amino)phenyl)piperazin-1-yl)methyl)piperidine-1-carbonyl)phenyl)-3-methyl-2,8-diazaspiro[4.5]decan-2-yl)-2-(trifluoromethyl)benzonitrile], in assay [1], the IC50 stood at 98 nM and the Emax is 56%. Besides, the DC50 in assay [2] (setting [3]) came out at 17.1 nM. In addition, the Dmax in assay [2] (0.1 nM R1881, 24 hours) turned out to be 96%.

`C[C@H]1CC2(CCN(c3ccc(C(=O)N4CCC(CN5CCC(c6cccc(NC7CCC(=O)NC7=O)c6)CC5)CC4)cc3)CC2)CN1c1ccc(C#N)c(Cl)c1` (stereo partly drawn) [Example 19, 2-Chloro-4-((3S)-8-(4-(4-((4-(3-((2,6-dioxopiperidin-3-yl)amino)phenyl)piperidin-1-yl)methyl)piperidine-1-carbonyl)phenyl)-3-methyl-2,8-diazaspiro[4.5]decan-2-yl)benzonitrile]: in assay [1], half-maximal inhibition (IC50) required 60 nM and the Emax was found to be 68%. Also, the DC50 in assay [2] (setting [3]) was determined as 1.8 nM. The Dmax in assay [2] (0.1 nM R1881, 24 hours) was 96%.

Turning to `C[C@H]1CC2(CCN(C(=O)c3ccc(SC4CCN(C5CN(c6ccc(C(=O)NC7CCC(=O)NC7=O)c(F)c6)C5)CC4)nc3)CC2)CN1c1ccc(C#N)c(Cl)c1` (stereo partly drawn) [Example 5, 4-(3-(4-((5-((S)-2-(3-Chloro-4-cyanophenyl)-3-methyl-2,8-diazaspiro[4.5]decane-8-carbonyl)pyridin-2-yl)thio)piperidin-1-yl)azetidin-1-yl)-N-(2,6-dioxopiperidin-3-yl)-2-fluorobenzamide], in assay [1], the IC50 was determined as 189 nM and the Emax turned out to be 72%. Further, in assay [2] (0.1 nM R1881, 24 hours), the Dmax stood at 86%. Moreover, the DC50 in assay [2] (setting [4]) is 30.5 nM.

The values above are taken from patent publication US20250129074A1, “CHIMERIC COMPOUND FOR TARGETED DEGRADATION OF ANDROGEN RECEPTOR PROTEIN, PREPARATION METHOD THEREFOR, AND MEDICAL USE THEREOF” (Jiangsu Hengrui Pharmaceuticals Co., Ltd., priority 2021, published 2025).
